From patent publication US20240352016A1, “A CYCLIN-DEPENDENT KINASE INHIBITOR” (TAIZHOU EOC PHARMA CO., LTD., priority 2021, published 2024) come the findings set out here.

Counter-ions that a name gives are not always drawn. Bounds are passed on as bounds.

In one experiment the target is T1, CDK7/Cyclin H/MAT1 (Homo sapiens, UniProt P50613).
T1 construct: made in house; host or cells: insect cell
T1 sequence (P50613 whole entry): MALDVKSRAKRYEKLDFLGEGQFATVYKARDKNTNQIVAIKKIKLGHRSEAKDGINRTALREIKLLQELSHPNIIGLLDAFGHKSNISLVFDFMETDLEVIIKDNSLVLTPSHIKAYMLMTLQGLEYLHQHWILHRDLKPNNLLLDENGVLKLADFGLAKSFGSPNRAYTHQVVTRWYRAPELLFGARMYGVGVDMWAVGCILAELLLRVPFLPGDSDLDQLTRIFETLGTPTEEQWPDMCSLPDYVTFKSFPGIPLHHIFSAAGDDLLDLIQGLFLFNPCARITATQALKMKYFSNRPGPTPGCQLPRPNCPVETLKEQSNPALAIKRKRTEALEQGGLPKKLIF
T1 sequence (P51946 whole entry partner): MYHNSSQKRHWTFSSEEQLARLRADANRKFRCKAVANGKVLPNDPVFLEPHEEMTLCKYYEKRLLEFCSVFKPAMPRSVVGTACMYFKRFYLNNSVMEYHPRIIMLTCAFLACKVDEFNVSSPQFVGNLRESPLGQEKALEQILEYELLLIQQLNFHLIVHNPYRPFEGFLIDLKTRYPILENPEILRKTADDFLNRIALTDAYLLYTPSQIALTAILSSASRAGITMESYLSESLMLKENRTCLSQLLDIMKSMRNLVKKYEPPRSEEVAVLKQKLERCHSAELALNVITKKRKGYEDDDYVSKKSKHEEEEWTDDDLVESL
T1 sequence (P51948 whole entry partner): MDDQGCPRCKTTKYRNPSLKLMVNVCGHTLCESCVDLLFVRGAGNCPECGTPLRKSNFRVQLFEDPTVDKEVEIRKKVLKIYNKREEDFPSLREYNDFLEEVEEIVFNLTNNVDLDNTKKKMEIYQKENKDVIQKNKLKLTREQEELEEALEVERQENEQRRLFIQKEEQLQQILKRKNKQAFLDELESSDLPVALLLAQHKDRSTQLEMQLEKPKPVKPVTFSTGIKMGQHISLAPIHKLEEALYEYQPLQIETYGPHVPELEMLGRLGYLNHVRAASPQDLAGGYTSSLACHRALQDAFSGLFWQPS
Put plainly: CDK kinase activity mobility shift assay (MSA). The format is biochemical.
Details: not given
As to the method: Human CDKs, cyclins and other partner proteins were expressed in insect cell, purified individually, reconstituted and then purified to homogeneity before being used for kinase activity assay.
Kinase activity of CDKs were determined by mobility shift assay (MSA), in which the formation of a phosphorylated fluorescence-labelled peptide in reaction mixture was monitored through capillary electrophoresis in a microfluidic environment. […] The mixtures were incubated at 27° C. for 40 min before being quenched with 4 μl 80 mM EDTA, then read on a LabChip EZ Reader II (Caliper Life Science). IC50 of compound for CDKs was calculated by Prism (GraphPad) using a four-parameter nonlinear curve fit.
Broadly, the IC50 is the concentration at which inhibition is half-maximal. For `CC(C)n1cnc2c(NCc3ccccc3-n3cccn3)nc(N3CCNCC3)nc21` [Compound I-28, N-(2-(1H-pyrazol-1-yl)benzyl)-9-isopropyl-2-(piperazin-1-yl)-9H-purin-6-amine], the concentration for half-maximal inhibition (IC50) was less than 100 nM.

Still in this experiment, the particulars now being: The CDK may be CDK7; mobility shift assay, 2 mM ATP, 3 nM CDK/Cyclin, 27° C. for 40 min; read-out: IC50 (CDK inhibition).
On to `CC(C)n1cnc2c(NCc3ccccc3-n3cccn3)nc(N3CCC(O)(Cn4cc(N)cn4)CC3)nc21` [Compound I-31, 1-(6-((2-(1H-pyrazol-1-yl)benzyl)amino)-9-isopropyl-9H-purin-2-yl)-4-((4-amino-1H-pyrazol-1-yl)methyl)piperidin-4-ol], for which the IC50 was in the range of 100 to 500 nM.
On to `CC(C)n1cnc2c(NCc3ccccc3-n3cccn3)nc(N3CCC[C@@H](N)C3)nc21` [Compound I-11, (R)—N-(2-(1H-pyrazol-1-yl)benzyl)-2-(3-aminopiperidin-1-yl)-9-isopropyl-9H-purin-6-amine], for which the IC50 is less than 100 nM.
Take `CC(C)n1cnc2c(NCc3ccccc3-n3cccn3)nc(N3CCC(C4CCNCC4)CC3)nc21` [Compound I-5, N-(2-(1H-pyrazol-1-yl)benzyl)-2-([4,4′-bipiperidin]-1-yl)-9-isopropyl-9H-purin-6-amine hydrochloride]: the concentration for half-maximal inhibition (IC50) is 100 to 500 nM.
For the compound `CC(C)n1cnc2c(NCc3ccccc3-n3cccn3)nc(N3CCC(N(C)C)CC3)nc21` [Compound I-26, N-(2-(1H-pyrazol-1-yl)benzyl)-2-(4-(dimethylamino)piperidin-1-yl)-9-isopropyl-9H-purin-6-amine], the 50% inhibitory concentration (IC50) is less than 100 nM.
On the same count and under the same terms, the figure for `CC(C)c1n[nH]c2c(NCc3ccccc3-n3cccn3)nc(NC3CCNCC3)nc12` [II-2, N7-(2-(1H-pyrazol-1-yl)benzyl)-3-isopropyl-N5-(piperidin-4-yl)-1H-pyrazolo[4,3-d]pyrimidine-5,7-diamine] is less than 100 nM; for `CC(C)n1cnc2c(NCc3ccccc3-n3cccn3)nc(N3CC[C@H](N)C3)nc21` [Compound I-9, (S)—N-(2-(1H-pyrazol-1-yl)benzyl)-2-(3-aminopyrrolidin-1-yl)-9-isopropyl-9H-purin-6-amine] it is less than 100 nM; for `CC(C)n1cnc2c(NCc3ccccc3-n3cccn3)nc(N3CCC(O)CC3)nc21` [Compound I-37, 1-(6-((2-(1H-pyrazol-1-yl)benzyl)amino)-9-isopropyl-9H-purin-2-yl)piperidin-4-ol] it is 100 to 500 nM.
The same measure, in the same setting: the figure for `CC(C)n1cnc2c(NCc3ccccc3-n3cccn3)nc(N3CCC(C(N)=O)CC3)nc21` [Compound I-38, 1-(6-((2-(1H-pyrazol-1-yl)benzyl)amino)-9-isopropyl-9H-purin-2-yl)piperidine-4-carboxamide] is 100 to 500 nM; for `CC(C)c1n[nH]c2c(NCc3ccccc3-n3cccn3)nc(N3CCC(N)CC3)nc12` [II-1, N-(2-(1H-pyrazol-1-yl)benzyl)-5-(4-aminopiperidin-1-yl)-3-isopropyl-1H-pyrazolo[4,3-d]pyrimidin-7-amine hydrochloride] it is less than 100 nM.
Same read-out and setting: then `CCN(CC)C1CCN(c2nc(NCc3ccccc3-n3cccn3)c3ncn(C(C)C)c3n2)CC1` [Compound I-20, 2-[4-(diethylamino)-1-piperidyl]-9-isopropyl-N-[(2-pyrazol-1-ylphenyl)methyl]purin-6-amine], with less than 100 nM.
`CC(C)n1cnc2c(NCc3ccccc3-n3cccn3)nc(NC(=O)C3CCNCC3)nc21` [Compound I-21, N-(6-((2-(1H-pyrazol-1-yl)benzyl)amino)-9-isopropyl-9H-purin-2-yl)piperidine-4-carboxamide]: the half-inhibitory concentration (IC50) is more than 1000 nM.
Still for that read-out and setting: then `CC(C)n1cnc2c(NCc3ccccc3-n3cccn3)nc(N3CCC(CO)CC3)nc21` [Compound I-40, (1-(6-((2-(1H-pyrazol-1-yl)benzyl)amino)-9-isopropyl-9H-purin-2-yl)piperidin-4-yl)methanol], with 500 to 1000 nM.
With `CC(C)n1cnc2c(NCc3ccccc3-n3cccn3)nc(N3CCC(C(=O)N(C)C)CC3)nc21` [Compound I-15, 1-(6-((2-(1H-pyrazol-1-yl)benzyl)amino)-9-isopropyl-9H-purin-2-yl)-N,N-dimethylpiperidine-4-carboxamide], the IC50 was more than 1000 nM.
For the compound `CC(C)n1cnc2c(NCc3ccccc3-n3cccn3)nc(N3CCC(O)(Cn4cc(C(F)(F)F)cn4)CC3)nc21` [Compound I-35, 1-(6-((2-(1H-pyrazol-1-yl)benzyl)amino)-9-isopropyl-9H-purin-2-yl)-4-((4-(trifluoromethyl)-1H-pyrazol-1-yl)methyl)piperidin-4-ol], the 50% inhibitory concentration (IC50) is more than 1000 nM.
Still for that read-out and setting: then `CC(C)n1cnc2c(NCc3ccccc3-n3cccn3)nc(NC3CCNCC3)nc21` [Compound I-30, N6-(2-(1H-pyrazol-1-yl)benzyl)-9-isopropyl-N2-(piperidin-4-yl)-9H-purine-2,6-diamine hydrochloride], with 100 to 500 nM.
Still for that read-out and setting: then `CC(C)n1cnc2c(NCc3ccccc3-n3cccn3)nc(N3CCC(CN(C)C)CC3)nc21` [Compound I-32, N-(2-(1H-pyrazol-1-yl)benzyl)-2-(4-((dimethylamino)methyl)piperidin-1-yl)-9-isopropyl-9H-purin-6-amine], with 100 to 500 nM; and `CC(C)n1cnc2c(NCc3ccccc3-n3cccn3)nc(N3CCC(N)C3)nc21` (stereo not shown) [Compound I-36, N-(2-(1H-pyrazol-1-yl)benzyl)-2-(3-aminopyrrolidin-1-yl)-9-isopropyl-9H-purin-6-amine], with 100 to 500 nM; and `NC1CCN(c2nc(NCc3ccccc3-n3cccn3)c3ncn(C4CCCC4)c3n2)CC1` [Compound I-25, N-(2-(1H-pyrazol-1-yl)benzyl)-2-(4-aminopiperidin-1-yl)-9-cyclopentyl-9H-purin-6-amine], with less than 100 nM.
On the same count and under the same terms, the figure for `CC(C)n1cnc2c(NCc3ccccc3-n3ccc(CO)n3)nc(N3CCC(N)CC3)nc21` [Compound I-1, (1-(2-(((2-(4-aminopiperidin-1-yl)-9-isopropyl-9H-purin-6-yl)amino)methyl)phenyl)-1H-pyrazol-3-yl)methanol] is less than 100 nM; for `CC(C)n1cnc2c(NCc3ccccc3-n3cccn3)nc(N[C@H]3CCCNC3)nc21` [Compound I-13, (S)-N6-(2-(1H-pyrazol-1-yl)benzyl)-9-isopropyl-N2-(piperidin-3-yl)-9H-purine-2,6-diamine] it is 100 to 500 nM; for `CC(C)n1cnc2c(NCc3ccccc3-n3cccn3)nc(N3CCC(CN)CC3)nc21` [Compound I-41, N-(2-(1H-pyrazol-1-yl)benzyl)-2-(4-(aminomethyl)piperidin-1-yl)-9-isopropyl-9H-purin-6-amine] it is 100 to 500 nM.
`CC(C)n1cnc2c(NCc3ccccc3-n3cccn3)nc(N[C@H]3CC[C@H](O)CC3)nc21` [Compound I-39, (1R,4R)-4-((6-((2-(1H-pyrazol-1-yl)benzyl)amino)-9-isopropyl-9H-purin-2-yl)amino)cyclohexan-1-ol]: the IC50 lay in the range of 500 to 1000 nM.
Still for that read-out and setting: the figure for `CC(C)n1cnc2c(NCc3ccccc3-n3ccc(C(C)(C)O)n3)nc(NC3CCNCC3)nc21` [Compound I-17, 2-(1-(2-(((9-isopropyl-2-(piperidin-4-ylamino)-9H-purin-6-yl)amino)methyl)phenyl)-1H-pyrazol-3-yl)propan-2-ol] is less than 100 nM; for `CC(C)n1cnc2c(NCc3ccccc3-n3cccn3)nc(N3CCC(CN)C3)nc21` (stereo not shown) [Compound I-34, N-(2-(1H-pyrazol-1-yl)benzyl)-2-(3-(aminomethyl)pyrrolidin-1-yl)-9-isopropyl-9H-purin-6-amine] it is 100 to 500 nM; for `CC(C)n1cnc2c(NCc3ccccc3-n3cccn3)nc(NC3CN4CCC3CC4)nc21` (stereo not shown) [Compound I-33, N6-(2-(1H-pyrazol-1-yl)benzyl)-9-isopropyl-N2-(quinuclidin-3-yl)-9H-purine-2,6-diamine] it is 100 to 500 nM.
On the same count and under the same terms, the figure for `CC(C)n1cnc2c(NCc3ccccc3-n3cccn3)nc(N3CCC(O)(CN(C)C)CC3)nc21` [Compound I-29, 1-(6-((2-(1H-pyrazol-1-yl)benzyl)amino)-9-isopropyl-9H-purin-2-yl)-4-((dimethylamino)methyl)piperidin-4-ol] is 100 to 500 nM; for `CC(C)n1cnc2c(NCc3ccccc3-n3cccn3)nc(NCC3(O)CCNCC3)nc21` [Compound I-14, 4-(((6-((2-(1H-pyrazol-1-yl)benzyl)amino)-9-isopropyl-9H-purin-2-yl)amino)methyl)piperidin-4-ol trihydrochloride] it is 100 to 500 nM; for `CC(C)n1cnc2c(NCc3c(F)cccc3-n3cccn3)nc(N3CCC(N)CC3)nc21` [Compound I-24, 2-(4-aminopiperidin-1-yl)-N-(2-fluoro-6-(1H-pyrazol-1-yl)benzyl)-9-isopropyl-9H-purin-6-amine hydrochloride] it is less than 100 nM.
With `c1ccc(-n2cccn2)c(CNc2nc(N3CCNCC3)nc3c2ncn3C2CCCC2)c1` [Compound I-27, N-(2-(1H-pyrazol-1-yl)benzyl)-9-cyclopentyl-2-(piperazin-1-yl)-9H-purin-6-amine], the half-inhibitory concentration (IC50) is less than 100 nM.
On to `CC(C)n1cnc2c(NCc3c(Cl)cccc3-n3ccc(C(C)(C)O)n3)nc(NC3CCNCC3)nc21` [Compound I-18, 2-[1-[3-chloro-2-[[[9-isopropyl-2-(4-piperidylamino)purin-6-yl]amino]methyl]phenyl]pyrazol-3-yl]propan-2-ol], for which the half-inhibitory concentration (IC50) is less than 100 nM.
